Patent US9115129B2, “Substituted pyrido[2,3-B]pyrazines as IP receptor agonists” (Novartis AG, priority 2012, dated 2015)
pEC50: −log10 of the molar value.

Each compound was assayed against T1, IP receptor (Homo sapiens, UniProt P43119) (assay: cAMP accumulation in CHO cells stably expressing the IP receptor (CHO-IP), Perkin Elmer AlphaScreen assay). Details: agonist activity, 1 hour at room temperature.
T1 construct: expressed in transfected cells; host or cells: CHO cells stably expressing the IP receptor (CHO-IP)
T1 sequence (P43119 whole entry): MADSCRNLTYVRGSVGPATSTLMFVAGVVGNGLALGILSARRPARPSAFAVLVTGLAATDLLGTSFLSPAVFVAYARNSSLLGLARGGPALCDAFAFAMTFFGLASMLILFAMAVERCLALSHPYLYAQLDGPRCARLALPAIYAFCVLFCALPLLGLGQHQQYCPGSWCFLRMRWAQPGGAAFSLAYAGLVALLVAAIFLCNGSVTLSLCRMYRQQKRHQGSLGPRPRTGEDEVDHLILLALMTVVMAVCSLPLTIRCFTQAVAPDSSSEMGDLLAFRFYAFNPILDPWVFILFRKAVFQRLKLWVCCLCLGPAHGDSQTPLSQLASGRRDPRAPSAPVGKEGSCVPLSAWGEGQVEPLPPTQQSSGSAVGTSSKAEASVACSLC
Assay type: cell-based
Description: Activity of compounds at the IP receptor (IP receptor) is assessed by measuring cAMP accumulation in CHO cells stably expressing the IP receptor (CHO-IP) using the Perkin Elmer AlphaScreen assay. This technology measures the endogenous production of cAMP, in a non-radioactive luminescence proximity homogenous assay. A biological reaction occurs between streptavidin coated donor beads, biotinylated cAMP and anti-cAMP acceptor beads, bringing the donor and acceptor beads close enough together so that upon excitation a fluorescence signal is produced. On production of endogenous cAMP, competition between the biotinylated cAMP and cellular-derived cAMP causes a reduction in the fluorescent signal. The reduction in signal is proportional to the amount of cAMP being produced, thus it is possible to quantify the amount of cAMP being produced on stimulation with agonist.
Test and reference compounds are prepared at 100× [final] in 100% DMSO, and diluted 1:3 using a Biomek Fx (Beckman Coulter). This is followed by an intermediate dilution to give 5× [final] in assay buffer (HBSS containing 5 mM HEPES, 0.1% (w/v) BSA). 5 μL of 5× [final] test compounds, reference compounds and buffer/DMSO control are then transferred to a 384-well white OptiPlate, containing 20 μL CHO-IP cell suspension (15,000 cells/well, prepared from frozen), and plate is incubated at room temperature for 1 hour. A cAMP standard curve is constructed for each experiment (concentration range of 10000 nM to 0.001 nM, in assay buffer) and 25 μL of each concentration added to the last two columns of the assay plate. The incubation is terminated by the addition of lysis buffer (dH2O; 0.3% (v v^−1) Tween-20) containing 20 units mL^−1 streptavidin coated donor beads and biotinylated cAMP (pre-incubated for 30 minutes) and 20 units mL^−1 anti-cAMP acceptor beads, which are added to the lysis buffer just before addition to the assay plate. The assay plate is then incubated at room temperature in the dark, for 60 minutes with gentle shaking, and read on the Envision plate reader (Perkin Elmer).
The raw data of the reference compounds, test compounds and controls are converted into cAMP concentrations, using the cAMP standard curve, in Graph Pad Prism (Graph Pad Software Inc). EC50 as well as maximal values of the agonist curves are determined using a 4-parameter logistic equation. The % maximum response values of all test compounds are determined using the top of the treprostinil concentration-response curve.

pEC50	Compound
8.57	Cc1ccc(-c2nc3c(nc2-c2ccc(C)cc2)N(CCCCCCC(=O)O)CC(N2CCCCC2)C3)cc1 (stereo not drawn) [Example 14]
9.52	Cc1ccc(-c2nc3c(nc2-c2ccc(C)cc2)N(CCCCCCC(=O)O)C(=O)C(O)C3)cc1 (single isomer, unassigned) [11(i), (R)-7-(7-hydroxy-6-oxo-2,3-di-p-tolyl-7,8-dihydropyrido[2,3-b]pyrazin-5(6H)-yl) heptanoic acid or (S)-7-(7-hydroxy-6-oxo-2,3-di-p-tolyl-7,8-dihydropyrido[2,3-b]pyrazin-5(6H)-yl) heptanoic acid]
10.00	Cc1ccc(-c2nc3c(nc2-c2ccccc2)CC(C)CN3CCCCCCC(=O)O)cc1 (stereo not drawn) [Example 2.2, 7-(7-Methyl-2-phenyl-3-(p-tolyl)-7,8-dihydropyrido[2,3-b]pyrazin-5(6H)-yl)heptanoic acid]
8.10	Cc1ccc(-c2nc3c(nc2-c2ccc(C)cc2)N(CCCCCCC(=O)N(C)O)CCC3)cc1 [Example 12.8, 7-(2,3-Di-p-tolyl-7,8-dihydropyrido[2,3-b]pyrazin-5(6H)-yl)-N-hydroxy-N-methylheptanamide]
7.54	Cc1ccc(-c2nc3c(nc2-c2ccc(C)cc2)N(CCCCCCC(=O)NS(C)(=O)=O)CCC3O)cc1 (single isomer, unassigned) [Example 13.1, (R or S)-7-(8-Hydroxy-2,3-di-p-tolyl-7,8-dihydropyrido[3,2-b]pyrazin-5(6H)-yl)-N-(methylsulfonyl)heptanamide]
9.40	Cc1ccc(-c2nc3c(nc2-c2ccc(C)cc2)C(C)(O)CCN3CCCCCCC(=O)O)cc1 (stereo not drawn) [Example 16, 7-(8-Hydroxy-8-methyl-2,3-di-p-tolyl-7,8-dihydropyrido[2,3-b]pyrazin-5(6H)-yl)heptanoic acid]
9.22	Cc1ccc(-c2nc3c(nc2-c2ccc(C)cc2)N(CCCCCCCCC(=O)O)CCC3)cc1 [Example 9.1, 9-(2,3-Di-p-tolyl-7,8-dihydropyrido[2,3-b]pyrazin-5(6H)-yl)nonanoic acid]
8.30	Cc1ccc(-c2nc3c(nc2-c2ccc(C)cc2)N(CCCCCCC(=O)NS(=O)(=O)C(C)C)CCC3)cc1 [Example 13.5, 7-(2,3-Di-p-tolyl-7,8-dihydropyrido[2,3-b]pyrazin-5(6H)-yl)-N-(isopropylsulfonyl) heptanamide]
8.74	Cc1ccc(-c2nc3c(nc2-c2ccc(C)cc2)N(CCCCC(O)CC(=O)O)CCC3)cc1 (racemic) [Example 17, rac-7-(2,3-Di-p-tolyl-7,8-dihydropyrido[2,3-b]pyrazin-5(6H)-yl)-3-hydroxyheptanoic acid]
9.22	Cc1ccc(-c2nc3c(nc2-c2ccccc2C)CCCN3CCCCCCC(=O)O)cc1 [Example 2.6, 7-(2-o-Tolyl-3-p-tolyl-7,8-dihydropyrido[3,2-b]pyrazin-5(6H)-yl)heptanoic acid]
10.00	Cc1ccc(-c2nc3c(nc2-c2cccc(F)c2)CCCN3CCCCCCC(=O)O)cc1 [Example 2.9, 7-(2-(3-Fluorophenyl)-3-p-tolyl-7,8-dihydropyrido[2,3-b]pyrazin-5(6H)-yl)heptanoic acid]
8.92	Cc1ccc(-c2nc3c(nc2-c2ccc(Cl)cc2)CCC(=O)N3CCCCCCC(=O)O)cc1 [Example 7.2, 7-(2-(4-Chlorophenyl)-6-oxo-3-p-tolyl-7,8-dihydropyrido[2,3-b]pyrazin-5(6H)-yl)heptanoic acid]
8.44	COC1(C)CCN(CCCCCCC(=O)O)c2nc(-c3ccc(C)cc3)c(-c3ccc(C)cc3)nc21 (single isomer, unassigned) [Example 15b, (R)-7-(8-Methoxy-8-methyl-2,3-di-p-tolyl-7,8-dihydropyrido[2,3-b]pyrazin-5(6H)-yl)heptanoic acid or (S)-7-(8-Methoxy-8-methyl-2,3-di-p-tolyl-7,8-dihydropyrido[2,3-b]pyrazin-5(6H)-yl)heptanoic acid]
8.41	Cc1ccc(-c2nc3c(nc2-c2ccccc2C)N(CCCCCCC(=O)O)CCC3)cc1 [Example 2.5, 7-(3-o-Tolyl-2-p-tolyl-7,8-dihydropyrido[3,2-b]pyrazin-5(6H)-yl)heptanoic acid]
9.52	COC1(C)CCN(CCCCCCC(=O)O)c2nc(-c3ccc(C)cc3)c(-c3ccc(C)cc3)nc21 (racemic) [Example 15, rac-7-(8-Methoxy-8-methyl-2,3-di-p-tolyl-7,8-dihydropyrido[2,3-b]pyrazin-5(6H)-yl)heptanoic acid]
9.52	Cc1ccc(-c2nc3c(nc2-c2ccc(C)cc2)N(CCCCCCC(=O)O)C(=O)C(C(C)(C)O)C3)cc1 (single isomer, unassigned) [1.1(i), (R)-7-(7-(2-hydroxypropan-2-yl)-6-oxo-2,3-di-p-tolyl-7,8-dihydropyrido[2,3-b]pyrazin-5(6H)-yl)heptanoic acid or (S)-7-(7-(2-hydroxypropan-2-yl)-6-oxo-2,3-di-p-tolyl-7,8-dihydropyrido[2,3-b]pyrazin-5(6H)-yl)heptanoic acid]
8.44	Cc1ccc(-c2nc3c(nc2-c2ccc(C)cc2)N(CCCC[C@@H](O)CC(=O)O)CCC3)cc1 (single isomer, unassigned) [Example 17a, (R)-7-(2,3-Di-p-tolyl-7,8-dihydropyrido[2,3-b]pyrazin-5(6H)-yl)-3-hydroxyheptanoic acid or (S)-7-(2,3-Di-p-tolyl-7,8-dihydropyrido[2,3-b]pyrazin-5(6H)-yl)-3-hydroxyheptanoic acid]
9.22	Cc1ccc(-c2nc3c(nc2-c2ccc(C)cc2)N(CCCCCCC(=O)O)C(=O)C(C(C)(C)O)C3)cc1 (single isomer, unassigned) [1.1(ii), (R)-7-(7-(2-hydroxypropan-2-yl)-6-oxo-2,3-di-p-tolyl-7,8-dihydropyrido[2,3-b]pyrazin-5(6H)-yl)heptanoic acid or (S)-7-(7-(2-hydroxypropan-2-yl)-6-oxo-2,3-di-p-tolyl-7,8-dihydropyrido[2,3-b]pyrazin-5(6H)-yl)heptanoic acid]
8.96	COC1(C)CCN(CCCCCCC(=O)O)c2nc(-c3ccc(C)cc3)c(-c3ccc(C)cc3)nc21 (single isomer, unassigned) [Example 15a, (R)-7-(8-Methoxy-8-methyl-2,3-di-p-tolyl-7,8-dihydropyrido[2,3-b]pyrazin-5(6H)-yl)heptanoic acid or (S)-7-(8-Methoxy-8-methyl-2,3-di-p-tolyl-7,8-dihydropyrido[2,3-b]pyrazin-5(6H)-yl)heptanoic acid]
7.93	Cc1ccc(-c2nc3c(nc2-c2ccc(C)nc2)N(CCCCCCC(=O)O)CCC3)cn1 [Example 5, 7-(2,3-Bis(6-methylpyridin-3-yl)-7,8-dihydropyrido[2,3-b]pyrazin-5(6H)-yl)heptanoic acid]
9.70	Cc1ccc(-c2nc3c(nc2-c2ccc(C)nc2)CCCN3CCCCCCC(=O)O)cc1 [Example 6, 7-(2-(6-Methylpyridin-3-yl)-3-p-tolyl-7,8-dihydropyrido[2,3-b]pyrazin-5(6H)-yl)heptanoic acid]
7.92	CNC(=O)CCCCCCN1CCCc2nc(-c3ccc(C)cc3)c(-c3ccc(C)cc3)nc21 [Example 12.4, 7-(2,3-Di-p-tolyl-7,8-dihydropyrido[2,3-b]pyrazin-5(6H)-yl)-N-methylheptanamide]
9.05	(R)-6-(2,3-di-p-tolyl-5,6,7,8-tetrahydropyrido[2,3-b]pyrazin-6-yl)hexanoic acid or (S)-6-(2,3-di-p-tolyl-5,6,7,8-tetrahydropyrido[2,3-b]pyrazin-6-yl)hexanoic acid [1(i)]
8.33	CONC(=O)CCCCCCN1CCCc2nc(-c3ccc(C)cc3)c(-c3ccc(C)cc3)nc21 [Example 12.6, 7-(2,3-Di-p-tolyl-7,8-dihydropyrido[2,3-b]pyrazin-5(6H)-yl)-N-methoxyheptanamide]
8.64	CO[C@@H]1CCN(CCCCCCC(=O)O)c2nc(-c3ccc(C)cc3)c(-c3ccc(C)cc3)nc21 (single isomer, unassigned) [Example 3.3, (R)-7-(8-methoxy-2,3-di-p-tolyl-7,8-dihydropyrido[2,3-b]pyrazin-5(6H)-yl)heptanoic acid or (S)-7-(8-methoxy-2,3-di-p-tolyl-7,8-dihydropyrido[2,3-b]pyrazin-5(6H)-yl)heptanoic acid]
9.52	Cc1ccc(-c2nc3c(nc2-c2ccccc2F)CCCN3CCCCCCC(=O)O)cc1 [Example 2.7, 7-(2-(2-Fluorophenyl)-3-p-tolyl-7,8-dihydropyrido[2,3-b]pyrazin-5(6H)-yl)heptanoic acid]
7.35	Cc1ccc(-c2nc3c(nc2-c2ccc(C)cc2)N(CCCCCCC(=O)NC(C)C)CCC3)cc1 [Example 12.3, 7-(2,3-Di-p-tolyl-7,8-dihydropyrido[2,3-b]pyrazin-5(6H)-yl)-N-isopropylheptanamide]
